{"source": "patent US10945989B2", "about": "“Perinatal treatment with a flavonoid agonist of the TrkB receptor for BDNF rescues neurogenesis and behavior in the Ts65Dn mouse model of DS” (ALMA MATER STUDIORUM—Universita' di Bologna, priority 2017, dated 2021)", "key": {"[1]": {"system": "ERK1/ERK2", "assay": "Western blot of hippocampal homogenates: ERK1/2 and p-ERK1/2", "type": "in vivo, mouse", "details": "for ERK2/ERK1 ratio, mean / p-ERK2/p-ERK1 ratio, mean: hippocampal region", "experimental": "Euploid and Ts65Dn mice received a daily subcutaneous injection (at 9-10 am) of 7,8-DHF (5.0 mg/kg in vehicle: PBS with 1% DMSO) or vehicle from postnatal day 3 (P3) to postnatal day 15. This timing was chosen because it corresponds to that previously used to test the effects of fluoxetine and other pharmacotherapies in the neonate Ts65Dn mouse (Bianchi et al., 2010b; Giacomini et al., 2015; Stagni et al., 2016). Mice that received 7,8-DHF will be called “treated mice” (treated euploid mice: n=25; treated Ts65Dn mice: n=15). Mice that received the vehicle will be called “untreated mice” (untreated euploid mice: n=35; untreated Ts65Dn mice: n=21). […] The brains were excised and cut along the midline. The left hemisphere of a group of mice was fixed by immersion in PFA 4% and frozen, and the left hemisphere of another group of mice was used for Golgi staining. The right hemispheres of all mice was kept at −80° C. and used for western blotting.\nIn homogenates of the hippocampal formation of P15 mice, total proteins were obtained as previously described (Trazzi et al., 2011) and the levels of the following proteins were evaluated: BDNF, TrkB full length (TrkB-FL), phosphorylated TrkB (p-TrkB), the truncated form 1 of the TrkB receptor (TrkB-T1), phosphorylated ERK1 (p-ERK1), phosphorylated ERK2 (p-ERK2), ERK1, ERK2, synaptophysin (SYN), GAPDH and α-Tubulin using the antibodies reported in Table 1. Densitometric analysis of digitized images with ChemiDoc XRS+ was performed with Image Lab software (Bio-Rad Laboratories, Hercules, Calif., USA) and intensity for each band was normalized to the intensity of the corresponding GAPDH or α-Tubulin band."}, "[2]": {"system": "NPCs from the SVZ of Ts65Dn mice", "assay": "Differentiation of NPC cultures (MAP2/Nestin immunolocalization)", "type": "cell-based, mouse", "details": "96 h, differentiating conditions", "experimental": "(§1) Cells were isolated from the subventricular zone (SVZ) of the lateral ventricle and the subgranular zone (SGZ) of the hippocampal dentate gyrus (DG) of newborn (P1-P2) euploid and Ts65Dn mice. Briefly, brains were removed, the SVZ and SGZ regions were isolated and individually collected in ice-cold PIPES buffer pH 7.4. After centrifugation, tissue was digested for 10 min at 37° C. using Trypsin/EDTA 0.25% (Life Technologies) aided by gentle mechanical dissociation. Cell suspension from each individual mouse was plated onto 25 cm^2 cell-culture flask (Thermo Fisher Scientific) and cultured as floating neurospheres in medium containing basic fibroblast growth factor (bFGF, 10 ng/ml; Peprotech) and epidermal growth factor (EGF, 20 ng/ml; Peprotech) using an established protocol (Meneghini et al., 2014). […] Cell proliferation was quantified as relative luminescence units (RLU) values using Cell Titer-Glo viability assay reagent (Promega) on aVictor^3-V plate reader (PerkinElmer). […] In each experiment, five fields/well (corresponding to about 150-200 cells/well) were counted with a 60× objective by a Leica DMIRB inverted fluorescence microscope. Immunoreactive cells were counted and their percentage over total viable cells was calculated. […]"}, "[3]": {"system": "NPCs from the SVZ of Ts65Dn mice", "assay": "Neuron maturation: cells exhibiting neuritic processes, SVZ NPCs", "type": "cell-based, mouse", "details": "96 h, vs standard medium", "experimental": "as §1"}, "[4]": {"assay": "Prenatal treatment: body and brain weight of P2 mice", "type": "in vivo, mouse", "details": "P2 Ts65Dn mice, embryonic treatment", "experimental": "Ts65Dn females (n=4) were bred C57BL/6JEi×C3SnHeSnJ (B6EiC3) F1 males (n=4). Conception was determined by examining the vaginal plug. Pregnant females received a daily subcutaneous injection of either 7,8-DHF (Sigma-Aldrich) in PBS with 2% DMSO (dose: 5 mg/kg) or vehicle from the embryonic (E) day 10 (E10) to the day of delivery (E20/21). […] On postnatal day 2 (P2) the progeny of 7,8-DHF-treated and vehicle-treated females received an intraperitoneal injection (150 μg/g body weight) of BrdU (Sigma) in 0.9% NaCl solution and were killed after 2 h (on P2; 4-8 animals for each group). Vehicle-treated females and their progeny will be called hereafter untreated mice. The body weight of P2 mice was recorded prior to sacrifice. After sacrifice, brain was excised and weighed."}}, "data": [{"smiles": "O=c1cc(-c2ccccc2)oc2c(O)c(O)ccc12", "note": "[7,8-DHF, 7,8-dihydroxyflavone]", "values": [{"measurement": "p-ERK1 levels", "setting": "[1]; P15 Ts65Dn mice, vs untreated Ts65Dn and untreated euploid mice", "value": "increase in p-ERK1 levels"}, {"measurement": "ERK1 levels", "setting": "[1]; P15 Ts65Dn mice, vs untreated Ts65Dn mice", "value": "increase in ERK1 levels"}, {"measurement": "ERK2 levels", "setting": "[1]; P15 Ts65Dn mice, vs untreated counterparts and untreated euploid mice", "value": "increase in ERK2 levels"}, {"measurement": "p-ERK2 levels", "setting": "[1]; P15 Ts65Dn mice, vs untreated euploid mice", "value": "increase in p-ERK2 levels"}, {"measurement": "ERK2 levels", "setting": "[1]; P15 euploid mice, vs untreated counterparts", "value": "increase in ERK2 levels"}, {"measurement": "stoichiometry of ERK1/2 and p-ERK1/2", "setting": "[1]; Ts65Dn mice", "value": "did not affect their stoichiometry"}, {"measurement": "ERK2/ERK1 ratio, mean", "setting": "[1]; Ts65Dn mice, 7,8-DHF P3-P15", "value": 3.93}, {"measurement": "p-ERK2/p-ERK1 ratio, mean", "setting": "[1]; Ts65Dn mice, 7,8-DHF P3-P15", "value": 2.01}, {"measurement": "ERK2/ERK1 ratio, mean", "setting": "[1]; euploid mice, 7,8-DHF P3-P15", "value": 4.18}, {"measurement": "p-ERK2/p-ERK1 ratio, mean", "setting": "[1]; euploid mice, 7,8-DHF P3-P15", "value": 2.32}, {"measurement": "percentage of Nestin+/MAP2- cells", "setting": "[2]", "value": "no change"}, {"measurement": "percentage of MAP2+/Nestin− cells", "setting": "[2]; all concentrations, vs standard medium", "value": "large increase"}, {"measurement": "doses that increased the percentage of cells exhibiting neuritic processes", "setting": "[3]", "value": "higher than 0.3 μM"}, {"measurement": "body weight", "setting": "[4]", "value": "did not further reduce the body weight"}]}]}
